Data set [1] concerns B16 melanoma. Put plainly: Antitumor activity vs ip B16 melanoma in mice. It counts as in vivo, mouse. Further details: O.D.: unit not given here. Conditions: for O.D.: ip B16 (3×; 9×); for Max. % T/C: ip B16 (3×; 9×): q4d × 3 or qd 1-9, ip, dying mice only; for Ratio of Max. % T/C Complex/cDDP: ip B16, relative to concomitant cisplatin. The source says:
(§1) The methods used to evaluate the platinum complexes for antitumor activity and toxicity in animals are summarized below. These methods have been published elsewhere in more detail (Rose, et al. Cancer Treat. Rep. 66: 135, 1982; Florczyk, et al, Cancer Treat. Rep. 66: 187, 1982).
(§2) The parent line of L1210 leukemia (L1210) was maintained in DBA/2 mice by ip transplantation of 10^5 cells at weekly intervals. […] B16 malenoma (B16) was maintained by sc transplant in C57BL/6 mice every two weeks. Madison 109 lung carcinoma (M109) and colon 26 carcinoma (C26) were maintained by sc transplant in BALB/c mice every two weeks.
The level and route of tumor inoculum, host, group size, and drug treatment schedule and route for each tumor type are summarized below in Table 6. Each complex was evaluated initially against L1210 at 4 dose levels per schedule selected on the basis of lethality data provided by the Wadley Institute.
(§3) The L1210 experiments were terminated on Day 30 whereas the B16, C26 and M109 experiments were terminated on Day 60 (some C26 experiments were terminated on Day 75). Mice alive at the termination day were autopsied and considered cured if no tumor was visible. […] A complex was considered active if it produced a % T/C value ≥125.

For data set [2], the system named is BDF1 mice. Put plainly: Single-dose ip LD50 in BDF1 mice. It counts as in vivo, mouse. Conditions: 30 days observation. On the procedure: Single-dose ip LD50 values were determined in BDF1 mice for the indicated complexes.
Data set [3] concerns C26 carcinoma. Kind of data set: Antitumor activity vs ip C26 (colon 26) carcinoma in mice. Format: in vivo, mouse. Further details: O.D.: unit not given here. Conditions: for Max. % T/C: ip C26 (2×; 4×): q3d × 2 or qd 1-4, ip, dying mice only; for Ratio of Max. % T/C Complex/cDDP: ip C26, relative to concomitant cisplatin.
Source text: (§4) Results of antitumor testing against the transplantable mouse tumors L1210 leukemia, cisplatin-resistant L1210 leukemia, B16 melanoma, Madison 109 lung carcinoma and colon 26 carcinoma are shown below in Tables 1 and 2.
as §1, §2
(§5) The level and route of tumor inoculum, host, group size, and drug treatment schedule and route for each tumor type are summarized below in Table 6. Each complex was evaluated initially against L1210 at 4 dose levels per schedule selected on the basis of lethality data provided by the Wadley Institute. In subsequent experiments with the other tumors the complexes were evaluated at a minimum of 3 dose levels selected on the basis of maximum tolerated levels in the L1210 experiments. Cisplatin-treated groups and a saline-treated (or untreated) tumor control group were included in each experiment.
as §3
8 q3d^b × 2 or qd 1-4, ip

Data set [4] concerns BDF1 mice. Kind of data set: Deaths (D.14) in the BUN test in BDF1 mice. It counts as in vivo, mouse.
Data set [5] can be described thus: Solubility stated in the preparation examples.
The test system of data set [6] is L1210 leukemia. Kind of data set: Antitumor activity vs transplantable L1210 leukemia (ip) in mice. It counts as in vivo, mouse. Conditions: for Max % T/C: dying mice only; for OD (optimum dose): optimum dose from the L1210 test.
Source text: The antitumor activities of the complexes provided by the present invention have been determined against L-1210 leukemia in the mouse and, for certain of the complexes, against other mouse tumor systems.
as §4
In Table 1 are shown the maximum % T/C values obtained for each platinum compound versus L1210 leukemia using both single and qd 1→5 dosing.
as §1, §2, §5, §3

The test system of data set [7] is M109 carcinoma. Put plainly: Antitumor activity vs ip M109 (Madison 109 lung) carcinoma in mice. It counts as in vivo, mouse. Further details: O.D.: unit not given here. Conditions: for O.D.: ip M109 (2×; 4×); for Max. % T/C: ip M109 (2×; 4×): q3d × 2 or qd 1-4, ip, dying mice only; for Ratio of Max. % T/C Complex/cDDP: ip M109, relative to concomitant cisplatin.
Source text: as §4, §1, §2, §5, §3
8 q3d^a × 2 or qd 1-4, ip

Data set [8] has as its system L1210/CDDP (cisplatin resistant line of L1210 leukemia). Kind of data set: Antitumor activity vs cisplatin-resistant L1210 leukemia (L1210/CDDP) in mice. Format: in vivo, mouse. As to conditions: for Cures/total / O.D. (optimal dose): Day 1; for Max % T/C: Day 1, dying mice only.
Source text: Results of antitumor testing against the transplantable mouse tumors L1210 leukemia, cisplatin-resistant L1210 leukemia, B16 melanoma, Madison 109 lung carcinoma and colon 26 carcinoma are shown below in Tables 1 and 2. […]
as §1, §2, §5, §3

In data set [9] the test system is BDF1 mice. Kind of data set: Nephrotoxicity: effect on blood urea nitrogen (BUN) in BDF1 mice. As to conditions: for BUN↑, Mouse: effect relative to cisplatin. As to the method:
The other compounds were in such short supply that they were tested for effects on BUN values using the optimum dose (O.D.) from the L1210 test for dose selection.
The toxicity studies were done in male BDF1 mice (25-29 gm) and castrated male Fitch ferrets (1-1.5 kg).
The complexes that were active against L1210 were evaluated for nephrotoxicity by determining their effects on blood urea nitrogen (BUN) levels in mice. Groups of 40-50 mice/experiment were bled from the retro-orbital plexus and individual BUN values determined by a modified urease method using a Centrifichem System 400. The test complex, or saline for controls, was given at several dose levels (5-10 mice/dose) in single ip injections. The highest dose of the complex usually corresponded to its LD50 value or 1.5 times its optimal single dose in the L1210 experiment. At least two lower doses were included to evaluate dose-related effects. The BUN values were measured 4 and 7 days after dosing. BUN values ≥30 mg% were considered indicative of drug-induced nephrotoxicity.

Data set [10] concerns ferret. Put plainly: Emetic effects (and lethality) in the ferret. It counts as in vivo, castrated male Fitch ferrets. As to the method:
Selected complexes were evaluated for emetic effects in ferrets. […] The time to the first emetic episode (retching and expulsion of vomitus) and the number of episodes were recorded. […] Subsequent test doses were selected based on the emetic response and lethality of the initial dose.

The test system of data set [11] is B16 melanoma. Put plainly: Antitumor activity vs B16 melanoma, sc tumor implant with iv drug dosing. It counts as in vivo, mouse.
Source text: ^b Sc tumor implant with iv drug dosing.
as §2, §5, §3

Setting [12] is: L1210, single dose Day 1, ip, (a), (b) determinations.
[13] abbreviates: L1210, single dose Day 1, ip, dose giving the Max % T/C, same order.

Values joined by “and” are separate entries in the source; they are usually repeats but may differ in a detail not shown here. Equal values may be shown once.

For the compound “phosphonoacetato trans(-)-1,2-diaminocyclohexane platinum(II) [Example 11]”, the O.D. came out at 9 in data set [1], 8 in data set [3] (ip C26 (2×; 4×)) and 10 in data set [7]. For the same compound, the results for the “Max. % T/C” value in [1], in data set [3] and in data set [7] were 206%, 116% and 114%, respectively. In addition, the “Ratio of Max. % T/C Complex/cDDP” value is on record as “.97” in [1], “.81” in data set [3] and “.74” in data set [7]. Also, the LD50 in data set [2] stood at 20 mg/kg/ip. In addition, the “Deaths D.14” value in data set [4] (20 mg/kg ip) and in data set [4] (30 mg/kg ip) was 0/5 each time. The Solubility in alcohol result in data set [5] (alcohol) is given as “insoluble”. In addition, the Solubility in water entry in data set [5] is reported as “soluble”. The “O.D. (optimal dose)” value was 10 mg/kg/inj in data set [6] (L1210, QD 1 → 5, ip); 20 mg/kg/inj and 24 mg/kg/inj in data set [6] (setting [13]); 24 mg/kg/inj in data set [8]. The “Max % T/C” value was 207% in [6] (L1210, QD 1 → 5, ip); 179% and 225% in data set [6] (setting [12]); 240% in [8]. In addition, in data set [6], the “OD (optimum dose)” value was found to be 20 mg/kg/ip. Also, the Cures/total in [8] was 2/6. The “Incidence of BUN > 30 mg %” value in data set [9] (20 mg/kg ip) and in [9] (30 mg/kg ip) was 0/5 throughout.
As to `CC(C)CC(C)(N)CN.[O-]B([O-])O.[Pt+2]` (stereo not shown) [Example 10, borato 1,2-diamino-2,4-dimethylpentane platinum(II)], the O.D. in data set [1] came to 9; in data set [3] (ip C26 (2×; 4×)), 8; in [7], 5. Besides, the “Max. % T/C” value in [1] was found to be 174%; in data set [3], 100%; in [7], 74%. Besides, the “Ratio of Max. % T/C Complex/cDDP” value is reported as “.82” in [1], “.69” in data set [3] and “.48” in [7]. Further, the LD50 in data set [2] worked out at 30 mg/kg/ip. Further, the results for the “Deaths D.14” value in data set [4] (17 mg/kg ip), in data set [4] (22.5 mg/kg ip) and in [4] (30 mg/kg ip) were 0/10, 0/10 and 1/10, respectively. Further, in [5] (methanol), the Solubility in methanol result is on record as “soluble”. Besides, in data set [5], the Solubility in water result was “soluble”. The “O.D. (optimal dose)” value is 10 mg/kg/inj in [6] (L1210, QD 1 → 5, ip); 20 mg/kg/inj and 24 mg/kg/inj in data set [6] (setting [13]); 24 mg/kg/inj in data set [8]. Besides, the “Max % T/C” value is 236% in [6] (L1210, QD 1 → 5, ip); 171% and 225% in data set [6] (setting [12]); 307% in data set [8]. For the same compound, the “OD (optimum dose)” value in [6] is 10-20 mg/kg/ip. Further, the Cures/total in [8] is listed as 5/6. The results for the “Incidence of BUN > 30 mg %” value in data set [9] (17 mg/kg ip), in [9] (22.5 mg/kg ip) and in data set [9] (30 mg/kg ip) were 0/10, 1/10 and 7/10, respectively. Besides, in data set [9], the “BUN↑, Mouse” value is reported as “<”.
Turning to `N[C@@H]1CCCC[C@H]1N.[O]=[Mn](=[O])([O-])[O-].[Pt+2]` [Example 8, manganato trans(-)-1,2-diaminocyclohexane platinum(II)], in data set [1], the O.D. turned out to be 2. Further, the “Max. % T/C” value in data set [1] worked out at 160%. In [2], this compound showed an LD50 of 31 mg/kg/ip. Moreover, the “Emesis Episodes” value in data set [10] (16 mg/kg iv) is 15. For the same compound, the “Emesis onset in responding animals” value in [10] (16 mg/kg iv) worked out at 16 min. Further, the “No. With Emesis/No. tested” value in data set [10] (16 mg/kg iv, 6 h observation) is 1/1. The same compound displayed an acute lethality in data set [10] (ferret, 16 mg/kg iv) of 44 min. The compound also returned a Lethal dose in data set [10] (ferret, doses marked * = Lethal dose) of 16 mg/kg iv. Also, the results for the “Deaths D.14” value in [4] (17 mg/kg ip), in data set [4] (23 mg/kg ip) and in data set [4] (31 mg/kg ip) were 1/10, 3/10 and 2/10, respectively. For the same compound, the “O.D. (optimal dose)” value in data set [6] (L1210, QD 1 → 5, ip) is 2.5 mg/kg/inj; in [6] (setting [13]) it was 20 mg/kg/inj and 18 mg/kg/inj; in [8] it was 8 mg/kg/inj. Also, the “Max % T/C” value in data set [6] (L1210, QD 1 → 5, ip) is 293%; in data set [6] (setting [12]) it was 214% and 186%; in [8], 181%. Also, the “OD (optimum dose)” value in data set [6] is 20 mg/kg/ip. Also, the “Incidence of BUN > 30 mg %” value in data set [9] (17 mg/kg ip) was 0/9; in data set [9] (23 mg/kg ip), 0/7; in [9] (31 mg/kg ip), 0/8. In addition, the “BUN↑, Mouse” value in data set [9] amounted to 0.
For the compound `N.N.[Cl][Pt][Cl]` [Cisplatin, reference compound], the “Max. % T/C” value was 172% and 186% and 191% and 220% and 185% and 212% and 189% in data set [1] (listed as cDDP); 176% and 163% and 144% in [3] (listed as cDDP); 152% in data set [11] (dying mice only); 153% and 175% and 155% and 163% and 142% in [7] (listed as cDDP). For the same compound, the Cures/total in data set [3] (ip C26 (2×; 4×)) was 2/8. Also, the O.D. in data set [3] (ip C26 (2×; 4×), listed as cDDP) is 4 and 3 and 2.5; in data set [11], 6. In addition, the “Deaths D.14” value in [4] (8 mg/kg ip, historical ranges, 20160 min) is reported as 0-40%; in data set [4] (10.5 mg/kg ip, historical ranges, 20160 min), 0-50%; in data set [4] (12 mg/kg ip, historical ranges, 20160 min), 20-100%; in data set [4] (14 mg/kg ip, historical ranges), 50-100%. Further, the “OD (optimum dose)” value in data set [6] is 8 mg/kg/ip.

The record behind these values is US4562275A, “Antitumor platinum complexes” (priority 1984, dated 1985).
